Laboratory results from patent US20050020593A1, “Aryl-heteroaromatic compounds, compositions comprising them and use” (Aventis Pharma, priority 2003, published 2005).

What was measured:
HCT116 cells = assay: Inhibition of proliferation of the human colon tumor line HCT116 ([14C]thymidine incorporation); format: cell-based; conditions: HCT-116, 48 hours at 37° C.
Experimental: Assay for Determining the Inhibition of Proliferation of the Human Colon Tumor Line HCT116
The proliferation of HCT116 cells is evaluated by measuring the incorporation of [^14C]thymidine in the following way. The HCT116 cells (from ATCC) are cultured in a DMEM medium (Gibco) which contains 10% foetal calf serum and antibiotics (1% penicillin, 1% streptomycin). To carry out the proliferation assay, the cells are seeded into 96-well Cytostar microplates (Amersham), at a rate of 5000 cells per well. The [^14C]thymidine (0.1 μCi/well) and the products to be evaluated are then added. Variable concentrations of products up to 10 μM are used; the DMSO (solvent used to dissolve the products) should not exceed 0.5% in the medium. 48 hours after incubation at 37° C., the radioactivity incorporated into the cells is measured by counting the plates in a Tri-Lux counter (Wallac). The IC50 value is defined as the concentration of product which reduces the radioactivity by 50% compared with an untreated control. A product with an IC50 value of less than 10 μM is considered to be cytotoxic.

Tubulin = target: T1, Tubulin (Sus scrofa, UniProt P02550+P02554); assay: Assessment of the inhibition of tubulin polymerization (turbidimetry at 350 nm); format: biochemical; conditions: tubulin purified from pig brains, 10 μM; concentration inhibiting the rate of polymerization by 50%
T1 construct: Tubulin is purified from pig brains according to published methods; from tissue; host or cells: pig brain
T1 sequence (P02550 whole entry): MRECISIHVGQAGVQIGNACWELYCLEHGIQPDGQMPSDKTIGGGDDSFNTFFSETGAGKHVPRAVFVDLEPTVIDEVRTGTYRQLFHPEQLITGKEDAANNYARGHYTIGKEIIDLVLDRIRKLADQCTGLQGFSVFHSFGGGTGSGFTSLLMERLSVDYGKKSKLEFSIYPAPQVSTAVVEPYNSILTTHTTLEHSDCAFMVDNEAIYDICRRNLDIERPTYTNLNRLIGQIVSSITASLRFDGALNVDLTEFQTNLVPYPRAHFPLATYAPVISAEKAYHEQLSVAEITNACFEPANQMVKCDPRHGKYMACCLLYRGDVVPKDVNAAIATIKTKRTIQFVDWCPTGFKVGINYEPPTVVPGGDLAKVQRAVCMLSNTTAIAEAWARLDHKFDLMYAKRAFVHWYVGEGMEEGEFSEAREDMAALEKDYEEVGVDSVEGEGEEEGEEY
T1 sequence (P02554 whole entry): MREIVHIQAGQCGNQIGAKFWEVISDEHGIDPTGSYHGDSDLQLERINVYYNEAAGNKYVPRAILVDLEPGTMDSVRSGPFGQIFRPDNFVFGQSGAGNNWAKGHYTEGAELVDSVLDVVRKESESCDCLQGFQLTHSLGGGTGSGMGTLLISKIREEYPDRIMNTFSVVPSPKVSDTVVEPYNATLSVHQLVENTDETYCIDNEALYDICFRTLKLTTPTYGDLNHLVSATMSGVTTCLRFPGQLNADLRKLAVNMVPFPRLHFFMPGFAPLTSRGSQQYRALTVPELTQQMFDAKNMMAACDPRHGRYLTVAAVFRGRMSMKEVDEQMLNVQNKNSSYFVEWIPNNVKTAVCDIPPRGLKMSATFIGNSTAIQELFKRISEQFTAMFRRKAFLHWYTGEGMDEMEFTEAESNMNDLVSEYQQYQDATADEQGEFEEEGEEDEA
Experimental: Tubulin is purified from pig brains according to published methods (Shelanski et al., 1973, Proc. Natl. Acad. Sci. USA, 70, 765-768, Weingarten et al., 1975, Proc. Natl. Acad. Sci. USA, 72, 1858-1862). Briefly, the brains are ground and centrifuged in an extraction buffer. The tubulin, present in the extract supernatant, is subjected to two successive cycles of polymerization at 37° C. and depolymerization at 4° C., before being separated from the MAPS (microtubule associated proteins) by chromatography on a phosphocellulose P11 column (Whatman). The tubulin thus isolated is more than 95% pure. It is stored in a buffer known as RB/2 30% glycerol, the composition of which is 50 mM MES-NaOH [2-(N-morpholino)ethanesulfonic acid], pH 6.8; 0.25 mM MgCl2; 0.5 mM EGTA; 30% (v/v) glycerol, 0.2 mM GTP (guanosine 5′-triphosphate).
The polymerization of the tubulin into microtubules is monitored by turbidimetry as follows: the tubulin is adjusted to a concentration of 10 μM (1 mg/ml) in the RB/2 30% glycerol buffer, to which are added 1 mM GTP and 6 mM MgCl2. The polymerization is initiated by increasing the temperature from 6° C. to 37° C. in a cuvette with 1 cm optical path length, placed in a Uvikon 931 spectrophotometer (Kontron) equipped with a thermostatically-regulated cuvette holder. The increase in turbidity of the solution is followed at 350 nm.
The products are dissolved at 10 mM in DMSO and added at variable concentrations (0.5 to 10 μM) to the tubulin solution before polymerization. The IC50 value is defined as the concentration of product which inhibits the rate of polymerization by 50%. A product with an IC50 value of less than or equal to […] is considered to be very active.

SMILES	IC50 (HCT116 cells)	IC50 (Tubulin)	melting point
O=C(c1cc2ccccc2n1-c1ccccc1)N1CCN(c2cccc(Cl)c2)CC1 [Example 1, [4-(3-chlorophenyl)piperazin-1-yl](1-phenyl-1H-indol-2-yl)methanone]	76 nM	800 nM	
O=C(c1c2ccccc2nn1-c1ccccc1)N1CCN(c2cccc(Cl)c2)CC1 [Example 2]	6 nM	800 nM	
COc1cc(OC)cc(N2CCN(C(=O)c3c4ccccc4nn3-c3ccccc3)CC2)c1 [Example 3]	9.8 nM	500 nM	
O=C(c1c(-c2ccccc2)sc2ccccc12)N1CCN(c2cccc(Cl)c2)CC1 [Example 4, [4-(3-chlorophenyl)piperazin-1-yl](2-phenylbenzo[b]thiophen-3-yl)methanone]	990 nM	1100 nM	
NC(=O)c1cccc(N2CCN(C(=O)c3cc4ccccc4n3-c3ccccc3)CC2)c1 [Example 7, [4-(3-carboxamidophenyl)piperazin-1-yl](1-phenyl-1H-indol-2-yl)methanone]		900 nM	
COc1cc(OC)cc(N2CCN(C(=O)c3cc4ccccc4n3-c3ccccc3)CC2)c1 [Example 8, [4-(3,5-dimethoxyphenyl)piperazin-1-yl](1-phenyl-1H-indol-2-yl)methanone]		1100 nM	146 °C
COc1cc(OC)cc(N2CCN(C(=O)c3cc4cc(OC)ccc4n3-c3ccccc3)CC2)c1 [Example 9, [4-(3,5-dimethoxyphenyl)piperazin-1-yl](5-methoxy-1-phenyl-1H-indol-2-yl)methanone]		1200 nM	165 °C
COc1ccc2c(c1)cc(C(=O)N1CCN(c3cccc(Cl)c3)CC1)n2-c1ccccc1 [Example 10, [4-(3-chlorophenyl)piperazin-1-yl](5-methoxy-1-phenyl-1H-indol-2-yl)methanone]		2600 nM	125 °C
O=C(C1=Nc2ccc(Cl)cc2C1c1ccccc1)N1CCN(c2cccc(Cl)c2)CC1 (stereo not drawn) [Example 11, [4-(3-chlorophenyl)piperazin-1-yl](5-chloro-3-phenyl-1H-indol-2-yl)methanone]		800 nM	188 °C
COc1cc(OC)cc(N2CCN(C(=O)c3cc4n(c3-c3ccccc3)CSC4)CC2)c1 [Example 14, [4-(3,5-dimethoxyphenyl)piperazin-1-yl](5-phenyl-1H-pyrrolo-[1,2-c]thiazol-6-yl)methanone]			98 °C
